Measured values taken from article PMC8624133, “10th Trends in Medical Mycology Held on 8 to 11 October 2021, Aberdeen, Scotland, Organized by the European Confederation of Medical Mycology (ECMM)” (Journal of Fungi, 2021).
In brackets after ≈: the same amount, converted by molar mass.

How the values were obtained:
[1] = tested on: C. auris clinical strains; assay: organism not typed; assay type: cell-based, Candida auris; settings: range, 78 strains from patients with COVID-19
[2] = tested on: Candida spp. blood isolates; settings: 2009–2018
Protocol: Ward of hospitalization at the time of the diagnosis, species identification and in vitro antifungal susceptibility profile (where available) were recorded. Identification of Candida isolates and susceptibility testing were performed as per hospital protocol. Annual incidence rates/100,000 inhabitants were calculated. Chi-square test for trend was used for evaluation of changes in species distribution.

Nc1[nH]c(=O)ncc1F [5-flucytosine]
MIC [1]: 0.06 to 0.12 µg/mL (≈ 0.465 to 0.93 µM) | Resistance [2]: No resistance
